According to US20040248953A1, “3-Arylsulfanyl and 3-heteroarylsulfanyl substituted benzo[b]thiophenes as therapeutic agents” (priority 2003, published 2004):
pIC50: −log10 of the molar value.

target: T1, PI3Kγ (Homo sapiens, UniProt P48736); test: PI3Kγ in vitro kinase assay (32P-ATP, PIP2 lipid micelles, filter plate); assay type: biochemical; settings: purified recombinant p101/p110γ protein with G protein β1/γ2 subunits; 20 μM ATP; 25 μM PIP2; 20 minutes at room temperature
T1 construct: HA; made in house; host or cells: Spodoptera frugiperda (Sf9) cells, baculovirus coinfection
T1 sequence (P48736 whole entry, species assumed): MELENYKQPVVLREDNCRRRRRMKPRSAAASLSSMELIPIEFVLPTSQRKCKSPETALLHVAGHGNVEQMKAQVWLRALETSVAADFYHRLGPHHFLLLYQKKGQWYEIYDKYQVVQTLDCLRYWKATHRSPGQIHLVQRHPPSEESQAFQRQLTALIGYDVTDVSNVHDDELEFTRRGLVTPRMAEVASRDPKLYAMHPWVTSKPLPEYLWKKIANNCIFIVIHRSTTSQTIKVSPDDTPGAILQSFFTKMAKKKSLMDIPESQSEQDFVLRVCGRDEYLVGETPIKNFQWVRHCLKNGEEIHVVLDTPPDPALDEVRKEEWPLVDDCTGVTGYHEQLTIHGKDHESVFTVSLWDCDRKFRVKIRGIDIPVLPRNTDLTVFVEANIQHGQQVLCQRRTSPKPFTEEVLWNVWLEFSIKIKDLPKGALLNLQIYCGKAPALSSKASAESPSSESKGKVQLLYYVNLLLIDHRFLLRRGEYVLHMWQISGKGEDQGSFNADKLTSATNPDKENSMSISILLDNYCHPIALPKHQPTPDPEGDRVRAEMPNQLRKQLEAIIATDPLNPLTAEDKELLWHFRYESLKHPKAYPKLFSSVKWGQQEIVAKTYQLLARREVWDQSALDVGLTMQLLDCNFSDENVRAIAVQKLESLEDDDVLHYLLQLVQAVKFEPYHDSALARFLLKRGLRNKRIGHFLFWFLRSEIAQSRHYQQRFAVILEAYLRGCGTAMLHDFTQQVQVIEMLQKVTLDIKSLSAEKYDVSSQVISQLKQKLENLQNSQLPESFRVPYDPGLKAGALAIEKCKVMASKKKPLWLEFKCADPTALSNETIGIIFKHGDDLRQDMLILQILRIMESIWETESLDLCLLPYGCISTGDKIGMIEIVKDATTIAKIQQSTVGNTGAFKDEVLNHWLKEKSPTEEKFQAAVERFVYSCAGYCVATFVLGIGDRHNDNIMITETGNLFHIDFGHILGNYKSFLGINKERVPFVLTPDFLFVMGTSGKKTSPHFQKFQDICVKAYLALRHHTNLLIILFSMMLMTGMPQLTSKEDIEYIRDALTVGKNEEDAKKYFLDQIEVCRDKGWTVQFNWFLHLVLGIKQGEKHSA
T1 sequence (Q8WYR1 whole entry partner, species assumed): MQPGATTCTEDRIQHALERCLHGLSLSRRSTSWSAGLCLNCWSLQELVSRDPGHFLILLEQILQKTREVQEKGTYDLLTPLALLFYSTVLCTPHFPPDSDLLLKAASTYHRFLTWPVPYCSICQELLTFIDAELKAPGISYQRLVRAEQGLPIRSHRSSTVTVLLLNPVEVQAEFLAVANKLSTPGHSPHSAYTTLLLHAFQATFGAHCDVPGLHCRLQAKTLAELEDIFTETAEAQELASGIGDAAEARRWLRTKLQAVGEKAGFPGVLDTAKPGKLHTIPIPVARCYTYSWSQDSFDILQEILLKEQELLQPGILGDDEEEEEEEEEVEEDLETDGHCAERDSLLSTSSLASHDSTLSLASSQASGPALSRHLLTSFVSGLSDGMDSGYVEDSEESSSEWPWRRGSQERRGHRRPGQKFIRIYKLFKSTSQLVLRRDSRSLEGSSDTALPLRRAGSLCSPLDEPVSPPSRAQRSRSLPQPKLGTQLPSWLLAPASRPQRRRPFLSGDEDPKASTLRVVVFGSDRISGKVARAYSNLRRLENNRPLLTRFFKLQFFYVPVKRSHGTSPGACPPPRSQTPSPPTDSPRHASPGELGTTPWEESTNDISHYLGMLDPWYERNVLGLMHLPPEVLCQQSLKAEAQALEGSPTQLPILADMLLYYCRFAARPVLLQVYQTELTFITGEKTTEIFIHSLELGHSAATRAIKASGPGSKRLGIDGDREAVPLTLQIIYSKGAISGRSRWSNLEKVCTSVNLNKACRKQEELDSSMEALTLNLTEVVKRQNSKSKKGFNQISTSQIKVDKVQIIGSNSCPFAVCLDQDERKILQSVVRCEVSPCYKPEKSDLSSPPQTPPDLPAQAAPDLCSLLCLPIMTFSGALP
Description: Spodtera frugiperda cells, grown in ESF921 media, were coinfected with baculovirus expressing a glu-tagged p101 and baculovirus expressing an HA-tagged p110γ, at a 3:1 ratio of p101 baculovirus to p110γ baculovirus. Sf9 cells were grown to 1×10^7 total cells/mL in 10 L bioreactors and harvested 48-72 hours post infection. Samples of infected cells were then tested for expression of p101/p110γ PI3 kinase by immunoprecipitation and Western Blot analysis methods (see below). To purify PI3Kγ, 4 volumes of room temperature hypotonic lysis buffer (1 mM MgCl2, 1 mM DTT, 5 mM EGTA, 1 mM Pefabloc, 0.5 μM aprotinin, 5 μM leupeptin, 2 μM pepstatin, 5 μM E64, pH 8) per gram of cell paste, was poured onto frozen cell pellets with stirring, then lysed in a nitrogen “bomb” at 400 psi (599HC […], Parr Instrument Co, Moline, Ill.). NaCl was added to 150 mM, and sodium cholate was added to 1% and mixed for another 45 minutes. The lysates were clarified by centrifugation for 25 minutes at 14,000 rpm. The lysates were then loaded over anti-glu-linked Protein-G Sepaharose beads (Covance Research Products, Richmond, Calif.) using 20 mL resin/50 g cell paste. The column was washed with 15 volumes of wash buffer (1 mM DTT, 0.2 mM EGTA, 1 mM Pefabloc, 0.5 μM aprotinin, 5 μM leupeptin, 2 μM pepstatin, 5 μM E64, 150 mM NaCl, 1% sodium cholate, pH 8). PI3Kγ was eluted with 6 column volumes of wash buffer that contain 100 μg/mL of a peptide that competes for binding of the glu tag. The column fractions with the eluted protein (determined by taking OD280 readings) were collected and dialyzed in 0.2 mM EGTA, 1 mM DTT, 1 mM Pefabloc, 5 μM leupeptin, 0.5% sodium cholate, 150 mM NaCl, and 50% glycerol, pH 8. The fractions were stored at -80° C. until further use. Spodtera frugiperda cells were coinfected with baculovirus expressing a glu-tagged G protein β1 and baculovirus expressing a […], at a 1:1 ratio of glu-tagged G protein β1 baculovirus to G protein β2 baculovirus. Sf9 cells are grown in 10 L bioreactors and harvested 48-72 hours post infection. Samples of infected cells were tested for G protein β1/β2 expression by Western Blot analysis, as described below. Cell lysates were homogenized and loaded onto a column of glu-tagged beads as in Biological Example 1 and competed off the column with a glu peptide and processed as described in Biological Example 1. The inhibitory properties of the compounds in Table 1 were assayed in an in vitro PI3K assay. In a 96-well polypropylene plate, each well was spotted with […] of 50 times the desired final concentration of compound in DMSO. Purified recombinant p101/p110γ protein (0.03 μg; 2.7 nM) and G protein β1/γ2 subunits (0.09 μg; 57.7 nM) for each reaction was combined in the assay buffer (30 mM HEPES, 100 mM NaCl, 1 mM EGTA, and 1 mM DTT). ATP and [γ-^32P-ATP] (0.09 μCi) were added to this mixture so that the final ATP concentration in the reaction was 20 μM. Lipid micelles were formed by sonicating phosphatidylinositol4,5-diphosphate (PIP2), phosphatidylethanolamine (PE), and Na-cholate in the assay buffer for 10 minutes, adding MgCl2 and incubating on ice for 20 minutes, for final concentrations of 25 μM PIP2, 300 μM PE, 0.02% Na-cholate, and 10 mM MgCl2 in the reaction. The reactions were started by adding equal volumes lipid and enzyme mixture in a total volume of 50 μL, allowed to run for 20 minutes at room temperature, and stopped with 100 μL 75 mM H3PO4. The lipid product was transferred to a glass fiber filter plate and washed with 75 mM H3PO4 several times. The presence of radioactive lipid product (PIP3) was measured by adding Wallac Optiphase mix to each well and counting in a Wallac 1450 Trilux plate reader (PerkinElmer Life Sciences Inc., Boston, Mass. 02118). The IC50 for each compound tested is reported in μM in Table 1: […]

Row | Compound | pIC50
1 | 3-(2,3-dichloro-phenylsulfanyl)-5-methoxy-benzo[b]thiophene-2-carboxylic acid(1H-tetrazol-5-yl)-amide [Example 25] | 5.46
2 | 5-Ethoxy-3-phenethylsulfanyl-benzo[b]thiophene-2-carboxylic acid(1H-tetrazol-5-yl)-amide [Example 52] | 5.55
3 | COc1ccc2sc(C(=O)Nc3nnn[nH]3)c(Sc3ccc(O)cc3)c2c1 [Example 4, 3-(4-hydroxy-phenylsulfanyl)-5-methoxy-benzo[b]thiophene-2-carboxylic acid(1H-tetrazol-5-yl)-amide] | 5.56
4 | COc1cc2sc(C(=O)Nc3nnn[nH]3)c(Sc3ccc(Cl)cc3)c2cc1OC [Example 8, 3-(4-chloro-phenylsulfanyl)-5,6-dimethoxy-benzo[b]thiophene-2-carboxylic acid(1H-tetrazol-5-yl)-amide] | 5.43
5 | COc1cc2sc(C(=O)Nc3nnn[nH]3)c(Sc3ccc(C)cc3C)c2cc1OC [Example 9, 3-(2,4-dimethyl-phenylsulfanyl)-5,6-dimethoxy-benzo[b]thiophene-2-carboxylic acid(1H-tetrazol-5-yl)-amide] | 5.55
6 | COc1cc(Sc2c(C(=O)Nc3nnn[nH]3)sc3cc(OC)c(OC)cc23)ccc1O [Example 14, 3-(4-hydroxy-3-methoxy-phenylsulfanyl)-5,6-dimethoxy-benzo[b]thiophene-2-carboxylic acid(1H-tetrazol-5-yl)-amide] | 5.64
7 | COc1ccc2sc(C(=O)Nc3nnn[nH]3)c(Sc3ccccc3)c2c1 [Example 17, 5-methoxy-3-phenylsulfanyl-benzo[b]thiophene-2-carboxylic acid(1H-tetrazol-5-yl)-amide] | 5.58
8 | COc1ccc2sc(C(=O)Nc3nnn[nH]3)c(Sc3ccccc3Cl)c2c1 [Example 19, 3-(2-chloro-phenylsulfanyl)-5-methoxy-benzo[b]thiophene-2-carboxylic acid(1H-tetrazol-5-yl)-amide] | 5.65
9 | COc1ccc2sc(C(=O)Nc3nnn[nH]3)c(Sc3ccccc3Br)c2c1 [Example 20, 3-(2-bromo-phenylsulfanyl)-5-methoxy-benzo[b]thiophene-2-carboxylic acid(1H-tetrazol-5-yl)-amide] | 5.53
10 | COc1ccc2sc(C(=O)Nc3nnn[nH]3)c(Sc3cccc(Cl)c3)c2c1 [Example 21, 3-(3-chloro-phenylsulfanyl)-5-methoxy-benzo[b]thiophene-2-carboxylic acid(1H-tetrazol-5-yl)-amide] | 5.37
11 | COc1cccc(Sc2c(C(=O)Nc3nnn[nH]3)sc3ccc(OC)cc23)c1 [Example 22, 5-methoxy-3-(3methoxyphenylsulfanyl)-benzo[b]thiophene-2-carboxylic acid(1H-tetrazol-5-yl)-amide] | 5.53
12 | COc1ccc2sc(C(=O)Nc3nnn[nH]3)c(Sc3ccc(Cl)cc3)c2c1 [Example 23, 3-(4-chloro-phenylsulfanyl)-5-methoxy-benzo[b]thiophene-2-carboxylic acid(1H-tetrazol-5-yl)-amide] | 5.31

The remaining lines, values ahead:

Row | pIC50 | Compound
13 | 6.77 | 3-(3-Chloro-phenylsulfanyl)-5-methoxy-6-methyl-benzo[b]thiophene-2-carboxylic acid(1H-tetrazol-5-yl)-amide [Example 33]
14 | 6.67 | 3-[2-(Acetyl-methyl-amino)-1-phenyl-propylsulfanyl]-6-methoxy-5-methyl-benzo[b]thiophene-2-carboxylic acid(1H-tetrazol-5-yl)-amide [Example 43]
15 | 6.28 | 5,6-dimethoxy-3-phenethylsulfanyl-benzo[b]thiophene-2-carboxylic acid(1H-tetrazol-5-yl)-amide [Example 13]
16 | 5.66 | 5-methoxy-3-(2-methyl-furan-3-ylsulfanyl)-benzo[b]thiophene-2-carboxylic acid(1H-tetrazol-5-yl)-amide [Example 16]
17 | 7.22 | COc1cc2sc(C(=O)Nc3nnn[nH]3)c(Sc3ccccc3)c2cc1OC [Example 1, 5,6-Dimethoxy-3-phenylsulfanyl-benzo[b]thiophene-2-carboxylic acid(1H-tetrazol-5-yl)-amide]
18 | 6.75 | COc1cc2c(Sc3ccccc3)c(C(=O)Nc3nnn[nH]3)sc2cc1C [Example 2, 5-Methoxy-6-methyl-3-phenylsulfanyl-benzo[b]thiophene-2-carboxylic acid(1H-tetrazol-5-yl)-amide]
19 | 6.60 | CCOc1ccc2sc(C(=O)Nc3nnn[nH]3)c(Sc3ccccc3)c2c1 [Example 3, 5-Ethoxy-3-phenylsulfanyl-benzo[b]thiophene-2-carboxylic acid (1H-tetrazol-5-yl)-amide]
20 | 5.90 | COc1cc2sc(C(=O)Nc3nnn[nH]3)c(Sc3ccccc3C)c2cc1OC [Example 5, 5,6-dimethoxy-3-o-tolysulfanyl-benzo[b]thiophene-2-carboxylic acid(1H-tetrazol-5-yl)-amide]
21 | 5.93 | CCc1ccccc1Sc1c(C(=O)Nc2nnn[nH]2)sc2cc(OC)c(OC)cc12 [Example 6, 3-(2-ethyl-phenylsulfanyl)-5,6-dimethoxy-benzo[b]thiophene-2-carboxylic acid(1H-tetrazol-5-yl)-amide]
22 | 5.70 | COc1cc2sc(C(=O)Nc3nnn[nH]3)c(Sc3cccc(Cl)c3)c2cc1OC [Example 7, 3-(3-chloro-phenylsulfanyl)-5,6-dimethoxy-benzo[b]thiophene-2-carboxylic acid(1H-tetrazol-5-yl)-amide]
23 | 5.95 | COc1cc2sc(C(=O)Nc3nnn[nH]3)c(Sc3cccc(Cl)c3Cl)c2cc1OC [Example 10, 3-(2,3-dichloro-phenylsulfanyl)-5,6-dimethoxy-benzo[b]thiophene-2-carboxylic acid(1H-tetrazol-5-yl)-amide]
24 | 5.68 | COc1cc2sc(C(=O)Nc3nnn[nH]3)c(Sc3ccc(C)c(C)c3)c2cc1OC [Example 11, 3-(3,4-dimethyl-phenylsulfanyl)-5,6-dimethoxy-benzo[b]thiophene-2-carboxylic acid(1H-tetrazol-5-yl)-amide]
25 | 5.91 | COc1cc2sc(C(=O)Nc3nnn[nH]3)c(Sc3ccc(Cl)c(Cl)c3)c2cc1OC [Example 12, 3-(3,4-dichloro-phenylsulfanyl)-5,6-dimethoxy-benzo[b]thiophene-2-carboxylic acid(1H-tetrazol-5-yl)-amide]
26 | 6.21 | COc1ccc(OC)c(Sc2c(C(=O)Nc3nnn[nH]3)sc3cc(OC)c(OC)cc23)c1 [Example 15, 3-(2,5-dimethoxy-phenylsulfanyl)-5,6-dimethoxy-benzo[b]thiophene-2-carboxylic acid(1H-tetrazol-5-yl)-amide]
27 | 6.33 | COc1ccc2sc(C(=O)Nc3nnn[nH]3)c(Sc3ccccc3C)c2c1 [Example 18, 5-methoxy-3-o-tolysulfanyl-benzo[b]thiophene-2-carboxylic acid (1H-tetrazol-5-yl)-amide]
28 | 5.91 | COc1ccc(OC)c(Sc2c(C(=O)Nc3nnn[nH]3)sc3ccc(OC)cc23)c1 [Example 24, 3-(2,5-dimethoxy-phenylsulfanyl)-5-methoxy-benzo[b]thiophene-2-carboxylic acid(1H-tetrazol-5-yl)-amide]
29 | 5.80 | COc1ccc2sc(C(=O)Nc3nnn[nH]3)c(SCCc3ccccc3)c2c1 [Example 26, 5-methoxy-3-phenethylsulfanyl-benzo[b]thiophene-2-carboxylic acid(1H-tetrazol-5-yl)-amide]
